In general, Ki refers to a measure of affinity in units of concentration, obtained from inhibition or displacement.

SMILES strings stand for the structures. Structures can show the parent of a compound that is named as a salt. Where two headings read alike, the source gives them in different places. Bounds are passed on as bounds.

This passage reports Ki, α2 % inhibition and α1 % inhibition results from patent US7153858B2, “Arylpiperazinyl compounds” (Epix Delaware, Inc., priority 2003, dated 2006).

Common to all, as to format: binding
For one assay, the target named is T1, 5-HT1A (Homo sapiens, UniProt P08908).
T1 sequence (P08908 1-422): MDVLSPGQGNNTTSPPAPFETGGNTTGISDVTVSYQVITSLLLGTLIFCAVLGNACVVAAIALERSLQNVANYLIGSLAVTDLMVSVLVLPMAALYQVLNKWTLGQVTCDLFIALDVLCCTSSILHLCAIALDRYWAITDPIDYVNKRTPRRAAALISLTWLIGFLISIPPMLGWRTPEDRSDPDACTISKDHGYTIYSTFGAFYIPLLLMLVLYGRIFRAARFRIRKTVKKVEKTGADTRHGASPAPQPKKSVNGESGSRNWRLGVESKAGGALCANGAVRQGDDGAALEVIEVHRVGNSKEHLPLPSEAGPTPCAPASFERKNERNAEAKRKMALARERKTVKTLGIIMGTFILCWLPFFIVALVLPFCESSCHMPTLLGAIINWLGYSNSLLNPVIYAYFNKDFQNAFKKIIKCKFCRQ
The experiment in a line: 5-HT1A receptor affinity (Ki), Table 1.

The subject of the next assay is α2. The experiment in a line: α2 cross-reactivity (% inhibition / Ki), Table 1.
Another assay deals with α1. The experiment in a line: α1 cross-reactivity (% inhibition / Ki), Table 1.

`CC(=O)Nc1cccc(N2CCN(CC3CCN(S(=O)(=O)CC4CCCCC4)CC3)CC2)c1` [N-{3-[4-(1-Cyclohexylmethanesulfonyl-piperidin-4-ylmethyl)-piperazin-1-yl]-phenyl}-acetamide]: at 5-HT1A (read-out: 5-HT1A (Ki)), the Ki came out at 10 nM. The compound further came in with a α2 % inhibition in the assay with α2 of less than 10%. Besides, the α1 % inhibition in the assay on α1 is recorded as 13%.

`COc1ccccc1N1CCN(CCCCNS(=O)(=O)CC2CCCCC2)CC1` [C-Cyclohexyl-N-{4-[4-(2-methoxy-phenyl)-piperazin-1-yl]-buty] [C-Cyclohexyl-N-{4-[4-(2-methoxy-phenyl)-piperazin-1-yl]-butyl}-methanesulfonamide] had a α1 % inhibition in the assay with α1 of 98%.

Consider `CC(=O)Nc1cccc(N2CCN(CCCCN(C)S(=O)(=O)CC3CCCCC3)CC2)c1` [N-(3-{4-[4-(Cyclohexylmethanesulfonyl-methyl-amino)-butyl]-piperazin-1-yl}-phenyl)-acetamide], for which the Ki at 5-HT1A (read-out: 5-HT1A (Ki)) was 1.3 nM. At α2, this compound showed a Ki of 616 nM and a α2 % inhibition of 47%. This compound had a α1 % inhibition with α1 of 37%.

With `O=C(Nc1cccc(N2CCN(CCCCNS(=O)(=O)CC3CCCCC3)CC2)c1)C1CC1` [Cyclopropanecarboxylic acid {3-[4-(4-cyclohexylmethanesulfonylamino-butyl)-piperazin-1-yl]-phenyl}-amide], on 5-HT1A (read-out: 5-HT1A (Ki)), the Ki turned out to be 8.9 nM. In the assay with α2, this compound registered a α2 % inhibition of less than 10%. This compound showed a α1 % inhibition in the assay on α1 of 22%.

Turning to `Cc1ccc(S(=O)(=O)NCCCCN2CCN(c3cccc([N+](=O)[O-])c3)CC2)cc1` [4-Methyl-N-{4-[4-(3-nitro-phenyl)-piperazin-1-yl]-butyl}-benzenesulfonamide], the Ki at 5-HT1A (read-out: 5-HT1A (Ki)) came out at 125 nM. The α2 % inhibition with α2 worked out at 14%. The compound also registered a α1 % inhibition with α1 of 56%.

With `Cc1ccc(S(=O)(=O)NCCCCN2CCN(c3cccc(NS(C)(=O)=O)c3)CC2)cc1` [N-{4-[4-(3-Methanesulfonylamino-phenyl)-piperazin-1-yl]-butyl}-4-methyl-benzenesulfonamide], the Ki at 5-HT1A (read-out: 5-HT1A (Ki)) came to 46 nM. In the assay with α2, the α2 % inhibition worked out at 21%. Besides, in the assay on α1, the α1 % inhibition is listed as 51%.

For the compound `O=S(=O)(c1ccc(F)cc1)N1CCC(CN2CCN(c3ccccn3)CC2)CC1` [1-[1-(4-Fluoro-benzenesulfonyl)-piperidin-4-ylmethyl]-4-pyridin-2-yl-piperazine], the Ki at 5-HT1A (read-out: 5-HT1A (Ki)) is 21 nM. Also, the α2 % inhibition in the assay with α2 came to 68%. This compound had a α1 % inhibition with α1 of 42%.

In the case of `CCS(=O)(=O)Nc1cccc(N2CCN(CCCCNS(=O)(=O)c3ccc(C)cc3)CC2)c1` [N-{4-[4-(3-Ethanesulfonylamino-phenyl)-piperazin-1-yl]-butyl}-4-methyl-benzenesulfonamide], the Ki at 5-HT1A (read-out: 5-HT1A (Ki)) was determined as 141 nM. The α2 % inhibition in the assay with α2 is 14%. For the same compound, the α1 % inhibition in the assay on α1 came to 47%.

As for `CC(=O)Nc1cccc(N2CCN(CCCCNS(=O)(=O)CC3CCCCC3)CC2)c1` [N-{3-[4-(4-Cyclohexylmethanesulfonylamino-butyl)-piperazin-1-yl]-phenyl}-acetamide], the Ki at 5-HT1A (read-out: 5-HT1A (Ki)) lay within 5.1 to 11 nM. In the assay on α2, the α2 % inhibition is given as less than 10%.

Take `Cc1ccc(S(=O)(=O)NCCCCN2CCN(c3cccc(NC(=O)C4CC4)c3)CC2)cc1` [Cyclopropanecarboxylic acid (3-{4-[4-(toluene-4-sulfonylamino)-butyl]-piperazin-1-yl}-phenyl)-amide]: on 5-HT1A (read-out: 5-HT1A (Ki)), the Ki stood at 21 nM. In the assay with α2, this compound yielded a α2 % inhibition of 15%. For the same compound, the α1 % inhibition in the assay on α1 is reported as 40%.

For `Cc1ccc(S(=O)(=O)NCCCCN2CCN(c3cccc(NC(=O)C(C)C)c3)CC2)cc1` [N-(3-{4-[4-(Toluene-4-sulfonylamino)-butyl]-piperazin-1-yl}-phenyl)-isobutyramide], on 5-HT1A (read-out: 5-HT1A (Ki)), the Ki turned out to be 47 nM. For the same compound, in the assay with α2, the α2 % inhibition is on record as 12%. The compound further returned a α1 % inhibition with α1 of 47%.

As for `CN(C)c1cccc(N2CCN(CC3CCN(S(=O)(=O)c4ccc(F)cc4)CC3)CC2)c1` [(3-{4-[1-(4-Fluoro-benzenesulfonyl)-piperidin-4-ylmethyl]-piperazin-1-yl}-phenyl)-dimethyl-amine], the Ki at 5-HT1A (read-out: 5-HT1A (Ki)) stood at 507 nM. Besides, the α2 % inhibition with α2 is recorded as 0%. Also, the α1 % inhibition in the assay on α1 amounted to 74%.

For `Cc1ccc(S(=O)(=O)NCCCCN2CCN(c3ccccc3)CC2)cc1` [4-Methyl-N-[4-(4-phenyl-piperazin-1-yl)-butyl]-benzenesulfonamide], the Ki at 5-HT1A (read-out: 5-HT1A (Ki)) came out at 40 nM. The α2 % inhibition with α2 is listed as 90%. In the assay on α1, this compound came in with a α1 % inhibition of 98%.

Consider `CC(=O)Nc1cccc(N2CCN(CCCCNS(=O)(=O)C(C)C)CC2)c1` [N-(3-{4-[4-(Propane-2-sulfonylamino)-butyl]-piperazin-1-yl}-phenyl)-acetamide], for which the Ki on 5-HT1A (read-out: 5-HT1A (Ki)) stood at 24 nM. In the assay on α2, this compound showed a α2 % inhibition of 12%. In the assay with α1, this compound showed a α1 % inhibition of less than 10%.

In the case of `Cc1ccc(S(=O)(=O)NCCCCN2CCN(c3cccc(NS(=O)(=O)C(C)C)c3)CC2)cc1` [4-Methyl-N-(4-{4-[3-(propane-2-sulfonylamino)-phenyl]-piperazin-1-yl}-butyl)-benzenesulfonamide], the Ki on 5-HT1A (read-out: 5-HT1A (Ki)) came out at 78 nM. The same compound had a α2 % inhibition in the assay with α2 of less than 10%. In the assay on α1, this compound displayed a α1 % inhibition of 15%.

On to `CCCC(=O)Nc1cccc(N2CCN(CCCCNS(=O)(=O)c3ccc(C)cc3)CC2)c1` [N-(3-{4-[4-(Toluene-4-sulfonylamino)-butyl]-piperazin-1-yl}-phenyl)-butyramide], for which the Ki on 5-HT1A (read-out: 5-HT1A (Ki)) was found to be 56 nM. In the assay with α2, this compound showed a α2 % inhibition of 12%. Besides, the α1 % inhibition in the assay with α1 is on record as 12%.

Consider `Cc1ccc(S(=O)(=O)NCCCCN2CCN(c3cccc([N+](=O)[O-])c3)CC2)cc1` [4-Methyl-N-{4-[4-(3-nitro-phenyl)-piperazin-1-yl]-butyl}-benzenesulfonamide HCl salt], for which the Ki at 5-HT1A (read-out: 5-HT1A (Ki)) came to 105 nM. Also, the α2 % inhibition with α2 (HCl salt) came to 23%. Also, the α1 % inhibition with α1 (HCl salt) was found to be 61%.

As for `Cl.O=C(Nc1cccc(N2CCNCC2)c1)C1CC1` [Cyclopropanecarboxylic acid (3-piperazin-1-yl-phenyl)-amide HCl], the Ki on 5-HT1A (5-HT1A (Ki)) stood at 4.6 nM. Also, the α2 % inhibition with α2 amounted to 14%. Further, the α1 % inhibition in the assay with α1 is 0%.

With `O=S(=O)(CC1CCCCC1)NCCCCN1CCN(c2ccccn2)CC1` [C-Cyclohexyl-N-[4-(4-pyridin-2-yl-piperazin-1-yl)-butyl]-methanesulfonamide], the Ki at 5-HT1A (read-out: 5-HT1A (Ki)) is 6.5 nM. The same compound came in with a α2 % inhibition with α2 of 51%. The α1 % inhibition in the assay on α1 was 81%.

For the compound `CC(=O)Nc1cccc(N2CCN(CC3CCN(S(=O)(=O)c4ccc(F)cc4)CC3)CC2)c1` [N-(3-{4-[1-(4-Fluoro-benzenesulfonyl)-piperidin-4-ylmethyl]-piperazin-1-yl}-phenyl)-acetamide], the Ki on 5-HT1A (read-out: 5-HT1A (Ki)) came to 13 nM. In the assay with α2, the α2 % inhibition is less than 10%. The compound further yielded a α1 % inhibition with α1 of 49%.

Consider `CC(=O)Nc1cccc(N2CCN(CCCCNS(=O)(=O)CC(C)C)CC2)c1` [N-(3-{4-[4-(2-Methyl-propane-1-sulfonylamino)-butyl]-piperazin-1-yl}-phenyl)-acetamide], for which the Ki at 5-HT1A (read-out: 5-HT1A (Ki)) is 11 nM. The α2 % inhibition in the assay on α2 is given as 0%. This compound also returned a α1 % inhibition with α1 of 5%.

`Cc1ccc(S(=O)(=O)NCCCCN2CCN(c3cccc(NC(=O)C(C)(C)C)c3)CC2)cc1` [2,2-Dimethyl-N-(3-{4-[4-(toluene-4-sulfonylamino)-butyl]-piperazin-1-yl}-phenyl)-propionamide] showed a α2 % inhibition with α2 of 11%. This compound registered a α1 % inhibition in the assay on α1 of 0%.

Regarding `CCC(=O)Nc1cccc(N2CCN(CCCCNS(=O)(=O)c3ccc(C)cc3)CC2)c1` [N-(3-{4-[4-(Toluene-4-sulfonylamino)-butyl]-piperazin-1-yl}-phenyl)-propionamide], the Ki at 5-HT1A (read-out: 5-HT1A (Ki)) was found to be 213 nM. The same compound returned a α2 % inhibition in the assay with α2 of 31%. Further, the α1 % inhibition with α1 is on record as 0%.

As for `CC(=O)Nc1cccc(N2CCN(CCCCNS(=O)(=O)c3ccc(F)cc3)CC2)c1` [N-(3-{4-[4-(4-Fluoro-benzenesulfonylamino)-butyl]-piperazin-1-yl}-phenyl)-acetamide], the Ki at 5-HT1A (read-out: 5-HT1A (Ki)) worked out at 18 nM. In the assay on α2, this compound registered a α2 % inhibition of less than 10%. Besides, the α1 % inhibition with α1 was 39%.

Take `CC(=O)Nc1cccc(N2CCNCC2)c1.Cl` [N-(3-Piperazin-1-yl-phenyl)-acetamide HCl]: the Ki on 5-HT1A (5-HT1A (Ki)) was determined as 2.9 nM. In addition, the α2 % inhibition in the assay on α2 turned out to be 35%. In addition, the α1 % inhibition in the assay on α1 was determined as 0%.

Consider `CN(C)c1cccc(N2CCN(CCCCNS(=O)(=O)CC3CCCCC3)CC2)c1` [C-Cyclohexyl-N-{4-[4-(3-dimethylamino-phenyl)-piperazin-1-yl]-butyl}-methanesulfonamide], for which the Ki at 5-HT1A (read-out: 5-HT1A (Ki)) is 110 nM. For the same compound, in the assay with α2, the α2 % inhibition is on record as 25%. In the assay with α1, this compound gave a α1 % inhibition of 85%.

In the case of `CC(=O)Nc1cccc(N2CCN(CCCCNS(=O)(=O)C3CCCCC3)CC2)c1` [N-{3-[4-(4-Cyclohexanesulfonylamino-butyl)-piperazin-1-yl]-phenyl}-acetamide], the Ki on 5-HT1A (read-out: 5-HT1A (Ki)) was 40 nM. The α2 % inhibition in the assay on α2 is 12%. Further, in the assay on α1, the α1 % inhibition was less than 10%.

As for `CC(=O)Nc1cccc(N2CCN(CC3CCN(S(=O)(=O)C(C)C)CC3)CC2)c1` [N-(3-{4-[1-(Propane-2-sulfonyl)-piperidin-4-ylmethyl]-piperazin-1-yl}-phenyl)-acetamide], on 5-HT1A (read-out: 5-HT1A (Ki)), the Ki is 112 nM. Besides, the α2 % inhibition in the assay on α2 is recorded as less than 10%. This compound also returned a α1 % inhibition in the assay on α1 of less than 10%.
